Data on 81 compounds can be found in PubChem BioAssay AID2765 (Broad Institute, 2010).

Active and inactive are the calls of the source.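 How the source made its calls: active means half-maximal concentration for the rise in caspase light signal at or below ten times the top tested dose; inconclusive means flat fit between 30% and 70% activity, or unreliable curve fit; inactive means the rest.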 Some results are limits rather than exact numbers.

This assay deals with MEF A1-2A-BIM cells, caspase 3/7 luminescence, 3 h. Nature of the assay: inducers of caspase signal in A1-dependent MEFs – cell-based, luminescence, retest, A1 inhibitor project, dose response (AID 2765).

Turning to `Nc1nonc1-n1nnc(C(=O)N/N=C/c2ccc(Br)cc2)c1CN1CCOCC1`, the EC50 was > 35 µM (inactive). In the case of `Cn1cnnc1SCC(=O)Nc1ccc(F)cc1` it was > 35 µM (inactive); in that of `Cc1c(CCCC(=O)O)sc(N)c1C(=O)c1cccc(C(F)(F)F)c1`, > 35 µM (inactive).

Consider `Cc1noc(C)c1S(=O)(=O)N(C)C[C@H]1Oc2ccc(NC(=O)CCC(F)(F)F)cc2C(=O)N([C@H](C)CO)C[C@@H]1C`, for which the EC50 is > 35 µM (inactive).

For the compound `CC(C)[C@H](NS(=O)(=O)c1ccccc1F)C(=O)OCC(=O)Nc1cccc(S(N)(=O)=O)c1`, the EC50 was > 35 µM (inactive).

With `Cc1ccc(NC(=O)Cn2c(=O)cnc3ccccc32)cc1S(=O)(=O)N1CCOCC1`, the EC50 is > 35 µM (inactive). For the compound `COc1ccc2sc(N(CCCN(C)C)C(=O)c3ccc(S(=O)(=O)N4CCc5ccccc5C4)cc3)nc2c1`, the half-maximal effective concentration (EC50) is 29.5 µM. Turning to `COc1ccc(N2CCN(C(=O)CCn3nnc4ccccc43)CC2)cc1`, the EC50 is > 35 µM (inactive).

For the compound `COc1ccc2c(c1)[nH]c1c(=O)n(/N=C/C3C(C)C=C(C)CC3C)c(=O)[nH]c12` (stereo unspecified), the EC50 is > 35 µM (inactive). For the compound `COCc1cccc(NC(=O)CCc2ccccc2)c1`, the EC50 is > 35 µM (inactive). For the compound `CCOC(=O)COc1ccc(S(=O)(=O)N2CCN(c3ccc(OC)cc3)CC2)cc1`, the EC50 was > 35 µM (inactive).

For the compound `O=C1N(S(=O)(=O)c2ccccc2F)C(=O)C2(CCCC2)N1S(=O)(=O)c1ccccc1F`, the EC50 is > 35 µM (inactive).

As for `CC1Cc2cc(/C(O)=C3/C(=O)C(=O)N(Cc4cccnc4)C3c3cccc(O)c3)ccc2O1` (stereo unspecified), the EC50 was > 35 µM (inactive).

As for `Cc1ccc(NC(=O)c2ccc(Cl)c(N3C(=O)C=CC3=O)c2)cc1`, the EC50 was > 35 µM (inactive).

For the compound `COc1ccc(CCNC(=O)C2CCCN2C(=O)Nc2ccc(Cl)cc2)cc1OC` (stereo unspecified), the EC50 is > 35 µM (inactive). Regarding `COc1ccc(NC(=O)/C=C/C(=O)O)c([N+](=O)[O-])c1`, the EC50 is > 35 µM (inactive). Regarding `Cc1ccc(C)c(N(C)C(=O)c2ccc3c(=O)n4c(nc3c2)CCCCC4)c1`, the EC50 was > 35 µM (inactive).

Take `COc1ccccc1C(=O)N1CCN(Cc2ccc3c(c2)OCO3)CC1`: the EC50 was > 35 µM (inactive). As to `O=C(/C=C/c1ccccc1)Nc1cccnc1`, the EC50 was > 35 µM (inactive). In the case of `COc1ccc(OC)c(S(=O)(=O)NC(C)c2ccc(-n3ccnc3)cc2)c1` (stereo unspecified), the EC50 is > 35 µM (inactive). In the case of `CCNC(=O)CN(c1ccc(Br)c(C)c1)S(C)(=O)=O` it was > 35 µM (inactive); in that of `OC(Cn1cncn1)(Cn1cncn1)c1ccc(F)cc1F`, > 35 µM (inactive).

As for `COc1cc(SC#N)ccc1N=Cc1c(C)[nH]n(-c2ccc(C)cc2)c1=O`, the EC50 was > 35 µM (inactive). Consider `CC(=O)Nc1ccc(C(=O)CN2C(=O)NC3(CCCc4ccccc43)C2=O)c(F)c1` (stereo unspecified), for which the EC50 is > 35 µM (inactive). On to `O=C(CN1C(=O)c2ccccc2S1(=O)=O)N1CCN(Cc2ccc3c(c2)OCO3)CC1`, for which the EC50 is > 35 µM (inactive). For `Cc1ccc(NC(=O)CSc2nc3ccc(Nc4nc(N5CCOCC5)nc(N5CCOCC5)n4)cc3s2)cc1`, the EC50 was 14.9 µM. On to `Cc1cc(=O)oc2c1c(C)nn2-c1ccc(Cl)cc1`, for which the EC50 was > 35 µM (inactive). As to `Cc1ccc2c(c1)c(C1=c3ccccc3=NC1=O)c(O)n2C`, the EC50 is > 35 µM (inactive). In the case of `CCOC(=O)/C(=C\c1ccc(OC(F)F)cc1)C1=Nn2c(nnc2-c2ccc(Cl)cc2)SC1` it was 6.18 µM.

In the case of `COc1cccc(CN(CC(=O)NC2CCCC2)C(=O)c2csnn2)c1`, the EC50 was > 35 µM (inactive). As for `O=C(Nc1ccc([N+](=O)[O-])cn1)c1cc(-c2cccc(Br)c2)nc2ccccc12`, the EC50 is > 35 µM (inactive).

For `Cc1cc(S(=O)(=O)N2CCCOC2CNC(=O)C(=O)NCc2ccco2)ccc1F` (stereo unspecified), the EC50 was > 35 µM (inactive). Take `COC(=O)[C@@]1(C)CC[C@]2(C)CC[C@@]3(C)C(=CC(=O)C4[C@@]5(C)CC[C@H](O)C(C)(C)[C@@H]5CC[C@]43C)[C@H]2C1` (stereo partly specified): the EC50 is > 35 µM (inactive). With `CC(C)CN(CC(C)C)C(=O)c1cc2c(=O)n3ccccc3nc2s1`, the EC50 is > 35 µM (inactive). In the case of `C=C1C(=O)O[C@H]2C[C@@H](C)[C@@H]3C=CC(=O)[C@@]3(C)C[C@H]12` it was > 35 µM (inactive); in that of `Cc1ccc(NC(=S)N(CCCN2CCCC2)Cc2cccn2Cc2ccc(Cl)cc2)cc1Cl`, > 35 µM (inactive); in that of `C[C@H](CO)N1C[C@H](C)[C@H](CN(C)Cc2ccc(-c3ccccc3)cc2)Oc2ccc(NS(=O)(=O)c3ccccc3)cc2CC1=O`, > 35 µM (inactive). On to `CC(C)N(C(=O)CSc1ccc(S(=O)(=O)N2CCCCC2)cn1)C(C)C`, for which the EC50 is > 35 µM (inactive).

As to `O=C(Nc1ccc2oc(-c3ccccc3F)nc2c1)c1ccccc1F`, the EC50 was > 35 µM (inactive). In the case of `CSc1ccc(C(c2c(C)[nH][nH]c2=O)c2c(C)[nH][nH]c2=O)cc1`, the EC50 was > 35 µM (inactive). In the case of `COc1ccc(CNC(=O)CN(Cc2ccc(Cl)cc2)S(=O)(=O)c2ccccc2)cc1` it was > 35 µM (inactive). In the case of `CC1=CC(=O)C(C(C)C)=C/C1=N/OS(=O)(=O)c1ccccc1` it was 9.28 µM. Take `Cc1[nH]n(-c2cccc(Cl)c2)c(=O)c1C=NC12CN3CN(CN(C3)C1)C2`: the EC50 is > 35 µM (inactive). As for `COc1ccc(Nc2cc3n(c(=O)n2)CCc2cc(OC)c(OC)cc2-3)c(C)c1`, the EC50 is > 35 µM (inactive).

`COC(=O)c1ccc2c(c1)C(C)(C)C(/C=C/c1ccccc1O)=[N+]2C`: the EC50 is 12.6 µM. For `CNC(C)C(=O)NC(C(=O)N1CCCC1C(=O)NC1CCCc2ccccc21)C(C)C` (stereo unspecified), the EC50 is > 35 µM (inactive). Turning to `COc1ccc(S(=O)(=O)N(CC(=O)NCCSc2ccccn2)c2ccccc2)cc1`, the EC50 is > 35 µM (inactive). In the case of `Cc1ccc(NC(=O)CCN2CCOCC2)cc1C` it was > 35 µM (inactive); in that of `O=C(COc1ccccc1[N+](=O)[O-])Nc1ccc(NC(=O)c2cc3ccccc3o2)cc1`, 27.4 µM; in that of `CCN(CC)S(=O)(=O)c1cc(C(=O)Nc2ccccc2[N+](=O)[O-])ccc1Cl`, > 35 µM (inactive). For `O=C(N=Nc1c(O)[nH]c2ccc([N+](=O)[O-])cc12)c1cc(-c2ccccc2Cl)nc2ccccc12`, the EC50 was > 35 µM (inactive). As for `Cc1ccc(C)c(N(C(=O)CCC(=O)Nc2cc(C)on2)C(C(=O)NC2CCCC2)c2ccco2)c1` (stereo unspecified), the EC50 is > 35 µM (inactive). With `Cc1cccc(NC(=O)CSc2nc(C)c(CC(=O)c3ccc(Br)cc3)c(C)c2C#N)c1C`, the EC50 is > 35 µM (inactive). With `O=C(CS(=O)c1ccc(C(F)(F)F)cc1[N+](=O)[O-])Oc1ccccc1` (stereo unspecified), the EC50 is > 35 µM (inactive).

On to `O=C(CSc1nc2ncc(Br)cc2[nH]1)c1ccc([N+](=O)[O-])cc1`, for which the EC50 was > 35 µM (inactive).

As for `COc1ccc(S(=O)(=O)N2CC(O)CC2C(=O)OCC(=O)Nc2ccc(Cl)cn2)cc1` (stereo unspecified), the EC50 is > 35 µM (inactive). In the case of `Cc1cccc(C)c1NC(=O)c1cnccn1` it was > 35 µM (inactive); in that of `O=C(NNc1cc(Br)c(O)c(Br)c1)c1ccccc1`, > 35 µM (inactive); in that of `CCC(C)[C@@H](C(=O)NCC1CCC(C(=O)O)CC1)n1nnc2ccccc2c1=O` (stereo partly specified), > 35 µM (inactive).

For the compound `Cc1ncc([N+](=O)[O-])n1Cc1cccc2ccccc12`, the EC50 is > 35 µM (inactive). `COc1ccccc1CN1CC(C(=O)NCCN2CCNC2=O)CCC1=O` (stereo unspecified): the EC50 is > 35 µM (inactive). Turning to `O=C(Nc1ccc([N+](=O)[O-])cc1)C(Cc1ccccc1)N1C(=O)c2cccc3cccc(c23)C1=O` (stereo unspecified), the EC50 is > 35 µM (inactive). For `C[C@]12CC[C@H](O)C[C@H]1CC[C@@H]1[C@@H]2CC[C@]2(C)[C@@H](C3=CC(=O)OC3)CC[C@]12O`, the EC50 is > 35 µM (inactive). With `Cc1cc(NC(=O)COC(=O)C2=NN(c3ccccc3)C(=O)CC2)c([N+](=O)[O-])cc1C`, the EC50 is > 35 µM (inactive). For the compound `O=C(N/C=N/OCc1ccc(Cl)cc1Cl)NOCc1ncc(C(F)(F)F)cc1Cl`, the EC50 is > 35 µM (inactive). In the case of `COc1ccc(C)cc1S(=O)(=O)n1cnc2ccccc21` it was > 35 µM (inactive); in that of `CCOC(=O)c1sc(NC(=O)CSc2nc(C)cc(C)c2C#N)c(C#N)c1C`, > 35 µM (inactive); in that of `CC1=C/C(=N\OS(=O)(=O)c2ccccc2)C(C)=CC1=O`, > 35 µM (inactive). In the case of `CC1CCCN(C(=O)CN2C(=O)C(C)Oc3ccccc32)C1` (stereo unspecified) it was > 35 µM (inactive). `COc1ccc(NC(=O)c2cccc3c2C(=O)c2ccc(-c4ccc(F)cc4OCc4ccccc4)cc2S3(=O)=O)cc1`: the EC50 is > 35 µM (inactive). Take `CCCC(=O)Nc1ncnc2c1ncn2[C@@H]1O[C@@H]2OP(=O)(O)OC[C@H]2[C@H]1OC(=O)CCC`: the EC50 was > 35 µM (inactive).

As for `Cc1cc(Cl)ccc1OCC(=O)OCC(=O)c1c(N)n(C)c(=O)n(C)c1=O`, the EC50 was > 35 µM (inactive). In the case of `CC(C)(C)CC(=O)Nc1nnc(SCC(=O)NC2CCCCC2)s1` it was > 35 µM (inactive). In the case of `CC(C)(C)C1CCc2onc(C(=O)Nc3cccc(O)c3)c2C1` (stereo unspecified) it was > 35 µM (inactive); in that of `COc1ccccc1CNC(=O)COc1ccc([N+](=O)[O-])cc1`, > 35 µM (inactive).

`CC(NC(=O)c1cc(F)c(F)c(F)c1F)c1ccc(-n2ccnc2)cc1` (stereo unspecified): the EC50 is > 35 µM (inactive). Consider `CCOc1ccc(OCc2ccc(C(=O)NN=Cc3ccc[nH]3)cc2)cc1`, for which the EC50 is > 35 µM (inactive). In the case of `COCc1cc(C)nc(SCC(=O)Nc2ccc3c(c2)OCO3)c1C#N` it was > 35 µM (inactive). As to `Cc1cc(C)n(-c2nc(Nc3ccccc3C)nc(-n3nc(C)cc3C)n2)n1`, the EC50 is > 35 µM (inactive). On to `CCn1c(C)[n+](CCOC(C)=O)c2cc(Cl)c(Cl)cc21`, for which the EC50 was > 35 µM (inactive). Regarding `NC(=O)OCCCc1ccccc1`, the EC50 was > 35 µM (inactive).

A word on the EC50: it is the concentration giving half of the maximal effect.
